According to patent US20060100287A1, “Insulin-like growth factor-1 secretagogue” (priority 2004, published 2006):

Tested on: IGF-1
Test: Test Example 3: action of various capsaicinoids on mouse IGF-1 (test solutions on back skin)
Assay type: in vivo
Conditions: mouse, in vivo

Row | SMILES | amount of IGF-1 in the mouse back skin compared to the base preparation
1 | CCCCCCCCC(=O)NCc1ccc(O)c(OC)c1 [nonylic vanillylamide] | significantly elevated
2 | COc1cc(CNC(=O)CCCCCC(C)C)ccc1O [nordihydrocapsaicin] | significantly elevated

Same assay, conditions: test solution containing 0.01% by mass in ethanol/physiological saline; 0.2 mL/cm^2 on back skin; 30 minutes after application; p<0.01 (FIG. 3, FIG. 4)

Row | SMILES | amount of IGF-1 in the mouse back skin compared to the base preparation
3 | COc1cc(CNC(=O)CCCC/C=C/C(C)C)ccc1O [capsaicin, (6E)-N-[(4-hydroxy-3-methoxyphenyl)methyl]-8-methyl-6-nonenamide, reference compound] | significantly elevated
4 | COc1cc(COC(=O)CCCC/C=C/C(C)C)ccc1O [capsiate] | significantly elevated
5 | COc1cc(CNC(=O)CCCCCCC(C)C)ccc1O [dihydrocapsaicin] | significantly elevated
6 | COc1cc(COC(=O)CCCCCCC(C)C)ccc1O [dihydrocapsiate] | significantly elevated
7 | COc1cc(COC(=O)CCCCCC(C)C)ccc1O [nordihydrocapsiate] | significantly elevated
